Measurements published in patent US20060122260A1, “Intermediates for aromatic polyketides as selective anticancer and antiviral agents” (priority 2002, published 2006).
≈ marks a conversion by molar mass, not a printed value. Entries after “also recorded” stand apart in the source; their conditions may differ.

Assays:
CBV5 virus = assay: Activity testing in human virus models: CBV5; assay type: cell-based; details: for inhibition at 1 µM: CBV5, 1 μM; for activity against virus: CBV5 virus, concentrations tested 1 μM and 100 μM
Experimental: (§1) The results obtained from the parvovirus model encouraged us to carry out the bioactivity tests using human viruses as targets. Selected RNA- and DNA-viruses were tested; herpes simplex (HSV), adenovirus, influenza B, RS virus, cytomegalovirus (CMV), and CBV5 virus. […] The concentrations tested were 1 μM and 100 μM. The cytotoxic effect was not found using 1 μM of S2502 or S2507. Instead, 100 μM of S2502 was toxic to the cells used for CBV5 and HSV infection, and 100 μM of S2507 was toxic to the cells used for HSV infection.
(§2) S2507 and S2502 were further tested in human virus models: herpes simplex (HSV), adenovirus, influenza B, RS virus, cytomegalovirus and CBV5 virus. […] The compounds were active when administered simultaneously or before an infection (prophylactic) and half an hour after the infection. […] However, in HSV 100 μM concentration was toxic.

Stability = assay type: physicochemical; details: for stability in purification process and bioassays: typical conditions used in the purification process and in bioassays
Description: It is the methyl ester of the S2507 acid.

uninfected cells = assay: Cytotoxicity in the parvovirus model; details: for effect on uninfected cells: parvovirus model
cytomegalovirus (CMV) = assay: Activity testing in human virus models: cytomegalovirus; assay type: cell-based; details: for activity against virus: CMV, concentrations tested 1 μM and 100 μM; for inhibition at 1 µM / inhibition at 100 µM: Human betaherpesvirus 5, Cytomegalo
Experimental: as §1, §2

herpes simplex (HSV) = assay: Activity testing in human virus models: HSV; assay type: cell-based, herpes simplex virus; details: for activity against virus: HSV, concentrations tested 1 μM and 100 μM; for inhibition % 100 μM / inhibition at 1 µM: Herpes (HSV); for inhibition at 1 µM: Homo sapiens
Experimental: as §1, §2

pKa = assay type: physicochemical; details: comparable to acetic acid
[1] = system: control cultivations without virus; assay: Cytotoxic effect on cells in the human virus tests (control cultivations without virus); details: for cytotoxic effect: 1 μM; for tolerance of control cultivations without virus: utilized drug concentrations (100 and 1 μM)
MES-SA = assay: Typical cytotoxicity screen, MES-SA
[2] = system: Canine parvovirus type 2 (CPV-d); assay: Parvovirus infectivity screening (animal virus model); assay type: cell-based; details: for antiviral activity against parvovirus (inhibition of infection of cells): drug added simultaneously with CPV, 24 h p.i.
RS virus = assay: Activity testing in human virus models: RS virus; assay type: cell-based; details: for activity against virus: RS virus, concentrations tested 1 μM and 100 μM; for inhibition at 1 µM / inhibition at 100 µM: human respiratory syncytial virus, RSV
Experimental: as §1, §2

MES-SA/Dx5 = assay: Typical cytotoxicity screen, MES-SA/Dx5
adenovirus = assay: Activity testing in human virus models: adenovirus; assay type: cell-based; details: for activity against virus: adenovirus, concentrations tested 1 μM and 100 μM; for inhibition at 1 µM / inhibition at 100 µM: unidentified adenovirus, Adeno
Experimental: as §1, §2

[3] = system: cells used for HSV infection; assay: Toxicity to cells used for HSV infection; assay type: cell-based; details: 100 μM
Experimental: as §1, §2

[4] = system: melanoma cell lines (MAL-ME-3M, M14, SK-MEL-5); assay: NCI 60-cell line panel, melanoma cell lines; assay type: cell-based, human; details: some melanoma cell lines
Description: National Cancer Institute (NCI) tested both of the compounds in their 60-cell line panel (copy of their report available). NCI uses a 48-hour continuous drug exposure protocol. Cell viability and growth are estimated using a sulforhodamine B (SRB) protein assay. The screen is described on the web site: http://dtp.nci.nih.gov. […] However, a mean value of ED50 is at micro molar range against some melanoma cell lines (MAL-ME-3M, M14, SK-MEL-5).

influenza B = assay: Activity testing in human virus models: influenza B; assay type: cell-based; details: for inhibition at 1 µM / inhibition at 100 µM: Influenza B virus, Influenza B; for activity against virus: influenza B, concentrations tested 1 μM and 100 μM
mice = assay: In vivo toxicity, preliminary dose range finding study; details: single i.p. 100, 50, 25, 12.5 and 6.25 mg/kg, two weeks
Experimental: The drug was injected once i.p. at doses 100, 50, 25, 12.5 and 6.25 mg/kg to two mice at each dose level. The mice were observed daily and weighed every 3 to 5 days for two weeks.

[5] = system: cells used for CBV5 infection; assay: Toxicity to cells used for CBV5 infection; assay type: cell-based; details: 100 μM
Experimental: as §1

human topoisomerase I = target: T1, human topoisomerase I (Homo sapiens, UniProt P11387); assay: Topoisomerase I drug screening kit; assay type: biochemical
T1 construct: purchased TopoGEN, Inc, Columbus, Ohio
T1 sequence (P11387 1-765): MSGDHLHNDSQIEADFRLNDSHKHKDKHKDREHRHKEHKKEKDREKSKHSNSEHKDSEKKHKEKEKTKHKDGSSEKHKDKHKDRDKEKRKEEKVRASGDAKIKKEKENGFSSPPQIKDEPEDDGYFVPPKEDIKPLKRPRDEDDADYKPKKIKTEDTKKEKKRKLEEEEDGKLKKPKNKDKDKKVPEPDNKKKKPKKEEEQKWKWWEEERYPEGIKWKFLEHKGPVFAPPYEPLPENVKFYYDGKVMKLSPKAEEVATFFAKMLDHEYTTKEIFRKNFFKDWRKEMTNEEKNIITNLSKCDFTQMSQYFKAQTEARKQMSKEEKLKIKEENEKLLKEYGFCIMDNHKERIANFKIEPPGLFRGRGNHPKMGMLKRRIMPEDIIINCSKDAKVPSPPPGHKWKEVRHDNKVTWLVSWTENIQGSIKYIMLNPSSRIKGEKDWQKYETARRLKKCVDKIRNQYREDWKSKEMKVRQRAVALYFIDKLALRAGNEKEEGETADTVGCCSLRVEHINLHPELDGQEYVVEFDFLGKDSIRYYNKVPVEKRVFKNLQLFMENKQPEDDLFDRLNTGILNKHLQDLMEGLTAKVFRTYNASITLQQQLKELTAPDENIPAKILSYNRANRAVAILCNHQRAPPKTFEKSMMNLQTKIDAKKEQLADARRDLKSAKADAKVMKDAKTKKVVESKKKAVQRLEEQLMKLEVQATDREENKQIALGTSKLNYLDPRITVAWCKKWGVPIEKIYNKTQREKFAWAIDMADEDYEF
Experimental: (§3) In order to understand the mechanism of anticancer activity, the inhibition of topoisomerases by S2502 was studied. The topoisomerase assays were done using Topoisomerase I and II drug screening kits with human topoisomerase I and II (p170 form) enzymes, respectively, according to the manufacturer's (TopoGEN, Inc, Columbus, Ohio) instructions. […] Minimal inhibitory concentrations were 25 μM against Topoisomerase 1 and 50 μM against Topoisomerase II.

[6] = target: T2, human topoisomerase II (p170 form) (Homo sapiens, UniProt P11388); assay: Topoisomerase II drug screening kit; assay type: biochemical
T2 construct: purchased TopoGEN, Inc, Columbus, Ohio
T2 sequence (P11388 whole entry): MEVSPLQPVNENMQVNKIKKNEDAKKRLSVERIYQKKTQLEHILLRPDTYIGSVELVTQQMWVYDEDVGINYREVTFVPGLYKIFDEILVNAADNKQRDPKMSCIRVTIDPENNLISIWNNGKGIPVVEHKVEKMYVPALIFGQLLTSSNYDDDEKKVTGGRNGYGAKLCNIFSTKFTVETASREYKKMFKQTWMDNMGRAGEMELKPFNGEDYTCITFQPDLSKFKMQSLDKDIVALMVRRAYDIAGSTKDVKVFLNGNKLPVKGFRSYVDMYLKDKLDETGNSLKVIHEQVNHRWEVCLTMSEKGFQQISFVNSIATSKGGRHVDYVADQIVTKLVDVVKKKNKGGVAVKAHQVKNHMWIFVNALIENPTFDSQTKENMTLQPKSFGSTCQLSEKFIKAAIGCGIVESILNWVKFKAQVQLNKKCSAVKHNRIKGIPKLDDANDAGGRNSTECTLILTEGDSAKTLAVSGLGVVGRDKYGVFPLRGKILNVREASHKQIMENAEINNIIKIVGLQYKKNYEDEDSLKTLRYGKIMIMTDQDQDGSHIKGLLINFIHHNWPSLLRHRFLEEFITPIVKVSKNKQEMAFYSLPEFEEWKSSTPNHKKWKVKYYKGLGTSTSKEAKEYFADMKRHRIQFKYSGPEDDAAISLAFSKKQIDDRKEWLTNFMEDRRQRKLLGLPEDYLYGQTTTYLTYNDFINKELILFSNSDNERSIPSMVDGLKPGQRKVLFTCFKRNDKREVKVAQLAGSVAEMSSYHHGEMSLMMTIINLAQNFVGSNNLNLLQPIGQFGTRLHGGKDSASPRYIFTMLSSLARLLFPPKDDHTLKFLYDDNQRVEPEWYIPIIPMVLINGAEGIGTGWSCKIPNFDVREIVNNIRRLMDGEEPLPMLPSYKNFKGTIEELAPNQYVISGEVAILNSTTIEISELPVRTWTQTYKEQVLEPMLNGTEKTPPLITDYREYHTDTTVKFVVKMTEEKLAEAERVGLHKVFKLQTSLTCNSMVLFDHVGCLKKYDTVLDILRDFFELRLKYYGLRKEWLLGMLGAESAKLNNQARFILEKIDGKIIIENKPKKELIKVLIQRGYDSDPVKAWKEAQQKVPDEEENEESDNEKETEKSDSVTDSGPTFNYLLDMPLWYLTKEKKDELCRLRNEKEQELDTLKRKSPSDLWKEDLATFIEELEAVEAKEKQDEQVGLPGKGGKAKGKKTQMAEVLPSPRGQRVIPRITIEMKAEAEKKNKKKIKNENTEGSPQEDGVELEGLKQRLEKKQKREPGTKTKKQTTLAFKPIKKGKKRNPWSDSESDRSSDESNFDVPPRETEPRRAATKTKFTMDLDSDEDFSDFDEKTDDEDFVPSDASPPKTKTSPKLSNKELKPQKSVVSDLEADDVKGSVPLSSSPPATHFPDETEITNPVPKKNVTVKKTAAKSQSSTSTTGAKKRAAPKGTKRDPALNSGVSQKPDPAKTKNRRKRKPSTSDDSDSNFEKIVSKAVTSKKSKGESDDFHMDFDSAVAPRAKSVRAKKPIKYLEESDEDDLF
Experimental: as §3

Compound | inhibition at 1 µM (CBV5 virus) | activity against virus (CBV5 virus) | stability under normal laboratory conditions (Stability) | stability in purification process and bioassays (Stability) | effect on uninfected cells (uninfected cells) | activity against virus (cytomegalovirus (CMV)) | inhibition at 1 µM (cytomegalovirus (CMV)) | inhibition at 100 µM (cytomegalovirus (CMV)) | activity against virus (herpes simplex (HSV)) | inhibition % 100 μM (herpes simplex (HSV)) | inhibition at 1 µM (herpes simplex (HSV)) | solubility to water at pH 7 | cytotoxic effect [1] | tolerance of control cultivations without virus [1] | anticancer activity (cytotoxicity screen) (MES-SA) | antiviral activity against parvovirus (inhibition of infection of cells) [2] | activity against virus (RS virus) | inhibition at 1 µM (RS virus) | inhibition at 100 µM (RS virus) | anticancer activity (cytotoxicity screen) (MES-SA/Dx5) | further results
CC(=O)/C=C1/C=C2OC(CC(=O)O)Cc3cc4cccc(O)c4c(c32)O1 (stereo not drawn) [S2507] | 100% | active | stable and non-reactive | stable | without disturbing the uninfected cells | only S2502 was active against CMV | 0% | 0% | active | toxic | 100% | slightly soluble | not found | tolerated well | fail to show anticancer activity | remarkable antiviral activity; also recorded: partially inhibit the infection | active | 100% | 100% | fail to show anticancer activity | inhibition at 100 µM (CBV5 virus; CBV5, 100 μM): 100%; cytotoxic properties (uninfected cells; highest concentration studied, 500 nM): did not exhibit cytotoxic properties; pKa (pKa): ~4.6; effect on parvovirus over concentration range ([2]; 5 nM to 500 nM): dose-activity correlation; activity against virus (adenovirus): active; inhibition at 1 µM (adenovirus): 90%; inhibition at 100 µM (adenovirus): 100%; toxicity to cells [3]: toxic; activity against melanoma cell lines [4]: active against some melanoma cell lines; inhibition at 1 µM (influenza B): 100%; inhibition at 100 µM (influenza B): 100%; activity against virus (influenza B): active; effect on the weight of the mice (mice): no effect; outer signs of general illness (mice): no outer signs of general illness were noticed
COC(=O)CC1Cc2cc3cccc(O)c3c3c2C(=C/C(=C/C(C)=O)O3)O1 (stereo not drawn) [S2502] | 100% | active | stable and non-reactive | stable | without disturbing the uninfected cells | active | 100% | 100% | active | toxic | 100% | not soluble | not found | tolerated well | fail to show anticancer activity | remarkable antiviral activity; also recorded: partially inhibit the infection | active | 100% | 100% | fail to show anticancer activity | inhibition % 100 μM (CBV5 virus; CBV5, 100 μM): toxic; toxicity to cells [5]: toxic; activity against virus (adenovirus): active; inhibition at 1 µM (adenovirus): 90%; inhibition at 100 µM (adenovirus): 100%; toxicity to cells [3]: toxic; activity against melanoma cell lines [4]: active against some melanoma cell lines; inhibition at 1 µM (influenza B): 100%; inhibition at 100 µM (influenza B): 100%; activity against virus (influenza B): active; Minimal inhibitory concentration (human topoisomerase I): 25 µM (≈ 9.16 µg/mL); Minimal inhibitory concentration [6]: 50 µM (≈ 18.3 µg/mL)
